Source: ChEMBL document CHEMBL5042484, “Design of SARS-CoV-2 PLpro Inhibitors for COVID-19 Antiviral Therapy Leveraging Binding Cooperativity” (J Med Chem, 2022)

Test system: SARS-CoV-2
Experiment: Antiviral activity against SARS-COV-2 USA/WA1/2020 in human A549 cells overexpressing ACE2 receptor assessed as reduction in viral replication at MOI of 0.01 pretreated for 1 hr followed by viral infection and further incubated for 1 hr measured after 48 hrs by RT-qPCR analysis
Assay type: functional, organism-based
Details: Severe acute respiratory syndrome coronavirus 2, USA/WA1/2020, A549

Structure (SMILES): Cc1ccc(NC2CNC2)cc1C(=O)N[C@H](C)c1cccc(-c2ccc(CN3CCCC3)s2)c1
- EC50: 1200 nM

Structure (SMILES): Cc1ccc(N)cc1C(=O)N[C@H](C)c1cccc2ccccc12
- EC50: > 20000 nM

Structure (SMILES): Cc1ccc(NC2CNC2)cc1C(=O)N[C@H](C)c1cccc(-c2ccc(CNC3CCCC3)s2)c1
- EC50: 1400 nM
